According to patent US20050148514A1, “Method and composition for treatment of angiogenesis” (priority 2003, published 2005):
Entries after “also recorded” stand apart in the source; their conditions may differ. Where no end group is shown, it is not given here.

Columns and labels:
MMP-9 = assay: Gelatin zymography of culture media of MatLyLu tumor cells; type: cell-based; details: 50 ug/ml collagen type-I, 500 ug/ml and 1 mg/ml, 72 hrs, serum free
Method: (§1) Zymography. Zymography is a technique generally used to analyze the activity of matrix metalloproteinases (MMPs) in biological samples. It involves the electrophoretic separation of proteins under denaturing (Sodium Dodecyl Sulfate (SDS)) but non-reducing conditions through a polyacrylamide gel containing gelatin (for example, 10% gel containing 1 mg/ml gelatin for MMP-9 and MMP-2 assays). The resolved proteins are re-natured by exchanging SDS with a non-ionic detergent such as Triton X-100 and the gel is incubated in an incubation buffer for activation of MMP-2 and MMP-9 (for example at 37° C. for 18 hrs). The gel is stained with Coomassie blue and the MMP-2 and MMP-9 bands may be visualized as clear bands against a blue background (i.e., the MMPs degrade the gelatin and are visualized as clear bands; pro MMP-2 is 68 kDa and pro-MMP-9 is 92 kDa). These bands can be quantified using densitometry.
In the experiment presented in FIG. 1, 2.5×10^5 MatLyLu tumor cells (American Type Culture Collection No.: JHU-5)) were seeded in T-25 flasks containing RPMI with 10% fetal bovine serum (FBS). […]
The media were collected after 72 hours of exposure to the PCK3145 derivative and subjected to gelatin zymography. […] The band intensities were determined using the Image Quant software (version 5.0) from molecular Dynamics. […]

proMMP-2 = assay: Gelatin zymography of conditioned media of serum-starved HUVEC; type: cell-based, Human; details: 300 μg/ml, 24 hours
Method: as §1
Cell culture. Human umbilical vein endothelial cells (HUVEC) and pulmonary aortic smooth muscle cells (PASMC) were obtained from Clonetics and maintained in endothelial cell basal medium-2, (EBM-2; Clonetics) and smooth muscle medium-2 (SmGM-2; Clonetics), respectively. […]
The effect of the PCK3145 derivative (SEQ ID NO.:7) on MMP extracellular levels was assessed by gelatin-zymography in the conditioned media of serum-starved HUVEC. […]

MAPK/JNK pathway (SRE) = assay: SEAP gene-reporter assay in U-87 glioma cells, SRE element; type: cell-based; details: alkaline phosphatase activity in extracellular media
Method: In order to investigate the potential intracellular pathways triggered by the PCK3145 derivative, a gene-reporter assay using the SEAP (Secreted Alkaline Phosphatase) Mercury Profiling Kit (CLONTECH) was performed in glioma cells (U-87). This assay enables the monitoring of transcription factors that are triggered by a particular experimental condition by assaying the alkaline phosphatase activity in the extracellular media. […] The induction of the MAPK pathway by the PCK3145 derivative is further confirmed by the rapid and transient induction of ERK phosphorylation between 5-10 minutes (FIG. 8B) and is shown to be dose-dependent (FIG. 8C). Finally, the effects of the PCK3145 derivative were also compared to those of a scrambled peptide.

For “EWQTDNCETCTCYET (cysteine pairing not given here)”, the “MMP-9 secreted in the cell culture media, zymography” value (MMP-9) was “dose-dependent reduction”, the “inhibition of VEGF-induced proMMP-2 secretion” value (proMMP-2) was “approximately 50%” and the “SEAP reporter, MAPK/JNK pathway (SRE)” value (MAPK/JNK pathway (SRE)) was “triggers significantly; also recorded: extremely strong”.
